Data: patent US20140072999A1, “METHODS OF SIMULATING CHEMOTHERAPY FOR A PATIENT” (Precision Therapeutics, Inc., priority 2008, published 2014)

Tests used:
[1] = system: tumor cells cultured from primary ovarian cancer specimens; experiment: in vitro chemoresponse assay (ChemoFx), AUC7 drug response score; format: cell-based, human; conditions: for share of tumors exhibiting in vitro resistance: AUC7 score >75th rank, patients of the observational study; for AUC (first seven doses) of the 25% of historical dose response curves with the highest scores (resistant cut-off) / AUC (first 7 doses) of the 25% of historical dose response curves with the lowest scores (sensitive cut-off): sum of survival fractions over doses 1-7, more than 2,000 specimens; for AUC (first 7 doses) of the 25% of historical dose response curves with the lowest scores (sensitive cut-off): smaller score = more sensitive
Procedure: Briefly, in certain embodiments, cohesive multicellular particulates (explants) are prepared from a patient's tissue sample (e.g., a biopsy sample or surgical specimen) using mechanical fragmentation. This mechanical fragmentation of the explant may take place in a medium substantially free of enzymes that are capable of digesting the explant. Some enzymatic digestion may take place in certain embodiments. Generally, the tissue sample is systematically minced using two sterile scalpels in a scissor-like motion, or mechanically equivalent manual or automated opposing incisor blades. This cross-cutting motion creates smooth cut edges on the resulting tissue multicellular particulates. The tumor particulates each measure from about 0.25 to about 1.5 mm^3, for example, about 1 mm^3.
After the tissue sample has been minced, the particles are plated in culture flasks. The number of explants plated per flask may vary, for example, between one and 25, such as from 5 to 20 explants per flask. For example, about 9 explants may be plated per T-25 flask, and 20 particulates may be plated per T-75 flask. For purposes of illustration, the explants may be evenly distributed across the bottom surface of the flask, followed by initial inversion for about 10-15 minutes. The flask may then be placed in a non-inverted position in a 37° C. CO2 incubator for about […], Flasks are checked regularly for growth and contamination. Over a period of a few weeks a cell monolayer will form. Further, it is believed (without any intention of being bound by the theory) that tumor cells grow out from the multicellular explant prior to stromal cells. Thus, by initially maintaining the tissue cells within the explant and removing the explant at a predetermined time (e.g., at about 10 to about 50 percent confluency, or at about 15 to about 25 percent confluency), growth of the tumor cells (as opposed to stromal cells) into a monolayer is facilitated. In certain embodiments, the tumor explant may be agitated to substantially release tumor cells from the tumor explant, and the released cells cultured to produce a cell culture monolayer. The use of this procedure to form a cell culture monolayer helps maximize the growth of representative tumor cells from the tissue sample.
A panel of active agents may then be screened using the cultured cells. Generally, the agents are tested against the cultured cells using plates such as microtiter plates. For the chemosensitivity assay, a reproducible number of cells is delivered to a plurality of wells on one or more plates, preferably with an even distribution of cells throughout the wells. For example, cell suspensions are generally formed from the monolayer cells before substantial phenotypic drift of the tumor cell population occurs. The cell suspensions may be, without limitation, about 4,000 to 12,000 cells/ml, or may be about 4,000 to 9,000 cells/ml, or about 7,000 to 9,000 cells/ml. The individual wells for chemoresponse testing are inoculated with the cell suspension, with each well or “segregated site” containing about 10^2 to 10^4 cells. The cells are generally cultured in the segregated sites for about 4 to about 30 hours prior to contact with an agent.
The efficacy of each agent in the panel is determined against the patient's cultured cells, by determining the viability of the cells (e.g., number of viable cells). For example, at predetermined intervals before, simultaneously with, or beginning immediately after, contact with each agent or combination, an automated cell imaging system may take images of the cells using one or more of visible light, UV light and fluorescent light. Alternatively, the cells may be imaged after about 25 to about 200 hours of contact with each treatment. The cells may be imaged once or multiple times, prior to or during contact with each treatment. Of course, any method for determining the viability of the cells may be used to assess the efficacy of each treatment in vitro. […]

[2] = system: FIGO stage III-IV ovarian, fallopian and peritoneal cancer; experiment: observational study: progression-free survival by in vitro response, patients treated with carboplatin + paclitaxel after cytoreductive surgery; format: in vivo, human; conditions: patients treated with C+P; for hazard ratio of disease progression, in vitro resistant vs S+I: univariate
Source text: Women with FIGO stage III-IV ovarian, fallopian and peritoneal cancer were enrolled in an observational study and received in vitro chemoresponse testing between 2006 and 2010. Two hundred seventy-six (276) patients treated with carboplatin (C)+paclitaxel (P) following cytoreductive surgery were included in this analysis. Tumor response to C or P was classified into one of three categories according to assay response score: sensitive (S), intermediately sensitive (I), and resistant (R). Patient clinical information and progression-free survival (PFS) were retrospectively collected. Association of assay drug response with […] was analyzed using Kaplan-Meier procedure and Cox regression model.

[3] = grouped by in vitro response to the named drug

Structure (SMILES)	share of tumors exhibiting in vitro resistance [1]	AUC (first seven doses) of the 25% of historical dose response curves with the highest scores (resistant cut-off) [1]	AUC (first 7 doses) of the 25% of historical dose response curves with the lowest scores (sensitive cut-off) [1]	hazard ratio of disease progression, in vitro resistant vs S+I, multivariate analysis ([2]; controlled for clinical covariates)	median PFS, tumors intermediately sensitive (I) in vitro [2, 3]	median PFS, tumors resistant (R) in vitro [2, 3]	median PFS, tumors sensitive (S) in vitro [2, 3]	hazard ratio of disease progression, in vitro resistant vs S+I [2]
N.N.O=C([O-])C1(C(=O)[O-])CCC1.[Pt+2] [carboplatin, Carboplatin]	19%	≥ 5.5	≤ 4.3	1.71	16.6 months	11.8 months	17.4 months	1.87
CC(=O)O[C@H]1C(=O)[C@@]2(C)[C@H]([C@H](OC(=O)c3ccccc3)[C@]3(O)C[C@H](OC(=O)[C@H](O)[C@@H](NC(=O)c4ccccc4)c4ccccc4)C(C)=C1C3(C)C)[C@]1(OC(C)=O)CO[C@@H]1C[C@@H]2O [paclitaxel, Paclitaxel]	22%	≥ 6.0	≤ 5.0					1.43
